Measured values from patent US8546611B2 (priority 2008, dated 2013).
Read-outs that look alike come from different tables or passages of the source.

How the values were obtained:
[1] = system: patients with cardiac insufficiency; settings: for patients of functional class I, day 30 / patients of functional class II, day 30 / patients of functional class III, day 30 / patients of functional class IV, day 30 / patients of functional class I, day 60 / patients of functional class II, day 60 / patients of functional class III, day 60 / patients of functional class IV, day 60 / patients of functional class I, day 90 / patients of functional class II, day 90 / patients of functional class III, day 90 / patients of functional class IV, day 90: 100 mg twice per day with standard therapy; for patients of functional class I, day 30 / patients of functional class II, day 30 / patients of functional class III, day 30 / patients of functional class IV, day 30: after 30 days; for patients of functional class I, day 60 / patients of functional class II, day 60 / patients of functional class III, day 60 / patients of functional class IV, day 60: after 60 days; for patients of functional class I, day 90 / patients of functional class II, day 90 / patients of functional class III, day 90 / patients of functional class IV, day 90: after 90 days; for patients of functional class I, day 0 / patients of functional class II, day 0 / patients of functional class III, day 0 / patients of functional class IV, day 0: with standard therapy, before treatment
Procedure: The test for cardiotonic activity of product samples was performed by measuring the dynamics of alteration of the functional class of cardiac failure. The functional class can be determined quite accurately by analyzing the everyday life activities according to a specific activity scale. The authors of this technique suppose that the criteria developed by NYHA (New York Heart Association) cannot provide accurate determination of functional class, since widely used terms, such as “everyday physical activity”, “sub-everyday activity” are not specific. On the basis of multiple tests, in which patients exercised on a treadmill, the authors calculated a scale of metabolic expenses for each kind of life activity (see Goldman L., Hashimoto B., Cook F. et al., Comparative reproducibility and validity of systems for assessing cardiovascular functional class: advantages of a new specific activity scale (1981) Circulation 64 (6):1227-34). This inquiry is designed to be used by medical personnel, interviewing a patient. After calculating the sum of possible energy expenses, the functional class of the patient is determined according to the summary criteria of the specific activity scale (Table 6).
In the tests, the patient groups were formed so that the people of the same functional class were equally distributed among different groups. Severe patients (of IV functional class; those having oncological diseases or suffered myocardial infarction/stroke to the brain 60 days or less before) were not admitted to the tests. The distribution of patients among groups was governed by a random number generator. The tests were carried out by the following protocol. Each patient took 100 mg of the preparation twice per day (in the morning and after lunch) during 3 months—against the background of a standard therapy administered by a physician. […] All the samples and placebo were encoded before sending into the clinic, so none of those involved into the tests (patients, physicians, medical personnel and the manager of tests) was aware of the nature of samples.
The functional class of patients was determined several times: at the beginning of tests (before the formation of test groups) and after 30, 60 and 90 days of treatment with the test samples. The estimation was performed on the basis of the activity scale (Table 7).

[2] = system: erythroid cells isolated from the bone marrow of gamma-irradiated laboratory mice males; test: Radioprotective properties (micronucleus test after gamma irradiation); settings: for Number of micronuclei per 2000 cells (radioprotective properties): mice irradiated with gamma rays 1.3 Gy, then fed 48 h succinic acid 20 mg/kg body wt., critical value 16±2
[3] = system: erythroid cells isolated from the bone marrow of laboratory mice males; settings: feed with succinic acid 20 mg/kg body wt., not irradiated
Procedure: The test for genotoxicity was performed on young laboratory mice males (18-20 g; 6 animals in each group). […] The control animals were given water.

white rat females = settings: female, in vivo, 5000 mg/kg; for Total died: 14 days
Wistar rat males = settings: for Eosinophils, 6 h after / Lymphocytes, 6 h after / Number of leukocytes in 1 μl of blood, 6 h after / Segmentated cells, 6 h after: 6 h after immobilization; for Eosinophils, 6 h after / Lymphocytes, 6 h after / Number of leukocytes in 1 μl of blood, 6 h after / Segmentated cells, 6 h after / Eosinophils, before / Lymphocytes, before / Number of leukocytes in 1 μl of blood, before / Segmentated cells, before: 1.5 ml of 1% succinic acid perorally 10 min prior; for Eosinophils, before / Lymphocytes, before / Number of leukocytes in 1 μl of blood, before / Segmentated cells, before: at the moment of immobilization
Procedure: Examples, illustrating the method invented, are presented below. […] SA is tested on rats endured an immobilization stress; the parameter tested is lymphocytic composition of blood, which is determined before and after stress in a blood smear taken from the caudal vein. […] A detailed description of the testing technique is given in Example 13.
The animals were fixed while lying flat on their back, with their legs secured. […] Blood was taken from the caudal vein: 10 μl for counting blood corpuscles and 20 μl for preparing a smear with its subsequent staining by Romanovsky-Giemsa).
First group: 10 min prior immobilization, the animals were injected (perorally, with the help of a stomach pump) with 1.5 ml of 1% starch solution. […] Blood was taken from the caudal vein at the moment of immobilization and 6 hours later, and stained blood smears were prepared to calculate the leukogram.

| SMILES | patients of functional class I, day 30 [1] | patients of functional class II, day 30 [1] | patients of functional class III, day 30 [1] | patients of functional class IV, day 30 [1] | patients of functional class I, day 60 [1] | patients of functional class II, day 60 [1] | patients of functional class III, day 60 [1] | patients of functional class IV, day 60 [1] | patients of functional class I, day 90 [1] | patients of functional class II, day 90 [1] | patients of functional class III, day 90 [1] | patients of functional class IV, day 90 [1] | patients of functional class I, day 0 ([1]; 100 mg twice per day, 3 months) | patients of functional class II, day 0 ([1]; 100 mg twice per day, 3 months) | patients of functional class III, day 0 ([1]; 100 mg twice per day, 3 months) | patients of functional class IV, day 0 ([1]; 100 mg twice per day, 3 months) | Number of micronuclei per 2000 cells (radioprotective properties) [2] | Number of micronuclei per 2000 cells (genotoxicity) ([3]; norm 5.0±1.0) | died, 14 day (white rat females) | Total died (white rat females) | also measured |
| --- | --- | --- | --- | --- | --- | --- | --- | --- | --- | --- | --- | --- | --- | --- | --- | --- | --- | --- | --- | --- | --- |
| O=C(O)CCC(=O)O [Example 4, succinic acid] | 8 | 7 | 5 | 0 | 9 | 9 | 3 | 0 | 13 | 6 | 1 | 0 | 8 | 7 | 5 | 0 | 12.5 ± 2.0 | 5.5 ± 1.0 | 1 | 3 | died, 12 day (white rat females; 12 day): 1; died, 13 day (white rat females): 1; Eosinophils, 6 h after (Wistar rat males; listed as Ex. 4): 1.5 ± 6%; Lymphocytes, 6 h after (Wistar rat males; listed as Ex. 4): 74 ± 8%; Number of leukocytes in 1 μl of blood, 6 h after (Wistar rat males; listed as Ex. 4): 7100; Segmentated cells, 6 h after (Wistar rat males; listed as Ex. 4): 24 ± 3%; Eosinophils, before (Wistar rat males; listed as Ex. 4): 2 ± 4%; Lymphocytes, before (Wistar rat males; listed as Ex. 4): 77 ± 4%; Number of leukocytes in 1 μl of blood, before (Wistar rat males; listed as Ex. 4): 5900; Segmentated cells, before (Wistar rat males; listed as Ex. 4): 21 ± 2% |
| O=C(O)CCC(=O)O [Example 9, succinic acid] | 10 | 6 | 4 | 0 | 11 | 6 | 3 | 0 | 14 | 5 | 1 | 0 | 8 | 7 | 5 | 0 | 11.0 ± 1.6 | 5.0 ± 1.0 | 1 | 3 | died, 13 day (white rat females): 2; Eosinophils, 6 h after (Wistar rat males; listed as Ex. 9): 1.5 ± 2%; Lymphocytes, 6 h after (Wistar rat males; listed as Ex. 9): 74 ± 6%; Number of leukocytes in 1 μl of blood, 6 h after (Wistar rat males; listed as Ex. 9): 7000; Segmentated cells, 6 h after (Wistar rat males; listed as Ex. 9): 25 ± 6%; Eosinophils, before (Wistar rat males; listed as Ex. 9): 2 ± 4%; Lymphocytes, before (Wistar rat males; listed as Ex. 9): 76 ± 6%; Number of leukocytes in 1 μl of blood, before (Wistar rat males; listed as Ex. 9): 5800; Segmentated cells, before (Wistar rat males; listed as Ex. 9): 22 ± 3% |
| O=C(O)CCC(=O)O [“Natural” SA, succinic acid, reference compound] | 10 | 6 | 4 | 0 | 9 | 8 | 3 | 0 | 14 | 5 | 1 | 0 | 8 | 7 | 4 | 0 |  |  | 2 | 3 | cardiotonic properties / dynamics of functional class, conclusion in words ([1]; 100 mg twice per day, 3 months, listed as “natural” acid): high cardiotonic properties; radioprotective effect, conclusion in words ([2]; gamma rays 1.3 Gy, 20 mg/kg body wt., 48 h, 20 mg/kg): evident radioprotectors; Number of micronuclei per 2000 cells (radioprotective properties) ([2]; listed as “Natural acid”): 12.0 ± 1.6; Number of micronuclei per 2000 cells (genotoxicity) ([3]; norm 5.0±1.0, listed as “Natural acid”): 5.0 ± 1.0; died, 13 day (white rat females): 1; adaptogenic properties, conclusion in words (Wistar rat males; 6-hour immobilization stress, Wistar rats, listed as “natural” acid): evident adaptogens; Eosinophils, 6 h after (Wistar rat males): 1.5 ± 3%; Lymphocytes, 6 h after (Wistar rat males): 74 ± 4%; Number of leukocytes in 1 μl of blood, 6 h after (Wistar rat males): 7100; Segmentated cells, 6 h after (Wistar rat males): 25 ± 3%; Eosinophils, before (Wistar rat males): 2 ± 4%; Lymphocytes, before (Wistar rat males): 75 ± 4%; Number of leukocytes in 1 μl of blood, before (Wistar rat males): 5900; Segmentated cells, before (Wistar rat males): 23 ± 2% |
| O=C(O)CCC(=O)O [Example 7, succinic acid] | 9 | 6 | 5 | 0 | 13 | 5 | 2 | 0 | 15 | 4 | 1 | 0 | 8 | 7 | 5 | 0 | 11.5 ± 1.8 | 5.0 ± 1.0 | 2 | 4 | died, 13 day (white rat females): 2; Eosinophils, 6 h after (Wistar rat males; listed as Ex. 7): 1.5 ± 4%; Lymphocytes, 6 h after (Wistar rat males; listed as Ex. 7): 73 ± 6%; Number of leukocytes in 1 μl of blood, 6 h after (Wistar rat males; listed as Ex. 7): 7200; Segmentated cells, 6 h after (Wistar rat males; listed as Ex. 7): 26 ± 3%; Eosinophils, before (Wistar rat males; listed as Ex. 7): 2 ± 1%; Lymphocytes, before (Wistar rat males; listed as Ex. 7): 75 ± 7%; Number of leukocytes in 1 μl of blood, before (Wistar rat males; listed as Ex. 7): 6000; Segmentated cells, before (Wistar rat males; listed as Ex. 7): 23 ± 3% |
| O=C(O)CCC(=O)O [Example 6, succinic acid] | 10 | 6 | 4 | 0 | 11 | 6 | 3 | 0 | 14 | 5 | 1 | 0 | 8 | 7 | 5 | 0 | 12.5 ± 1.0 | 4.5 ± 1.0 | 2 | 3 | died, 11 day (white rat females; 11 day): 1; Eosinophils, 6 h after (Wistar rat males; listed as Ex. 6): 1.0 ± 2%; Lymphocytes, 6 h after (Wistar rat males; listed as Ex. 6): 74 ± 6%; Number of leukocytes in 1 μl of blood, 6 h after (Wistar rat males; listed as Ex. 6): 7000; Segmentated cells, 6 h after (Wistar rat males; listed as Ex. 6): 25 ± 3%; Eosinophils, before (Wistar rat males; listed as Ex. 6): 2 ± 2%; Lymphocytes, before (Wistar rat males; listed as Ex. 6): 77 ± 5%; Number of leukocytes in 1 μl of blood, before (Wistar rat males; listed as Ex. 6): 5800; Segmentated cells, before (Wistar rat males; listed as Ex. 6): 21 ± 3% |
